Reference: publication PMC6848746 (Psychopharmacology, 2019)
Read-outs that look alike come from different tables or passages of the source.

How the values were obtained:
NET = NET (Rattus norvegicus, UniProt Q63380); assay: NET-mediated release of [3H]MPP+ from rat brain synaptosomes; format: biochemical; conditions: read-out: NET-mediated release Emax
5-HT2C = target: T1, 5-HT2C (Homo sapiens, UniProt P28335); assay: Radioligand binding
T1 sequence (P28335 33-458): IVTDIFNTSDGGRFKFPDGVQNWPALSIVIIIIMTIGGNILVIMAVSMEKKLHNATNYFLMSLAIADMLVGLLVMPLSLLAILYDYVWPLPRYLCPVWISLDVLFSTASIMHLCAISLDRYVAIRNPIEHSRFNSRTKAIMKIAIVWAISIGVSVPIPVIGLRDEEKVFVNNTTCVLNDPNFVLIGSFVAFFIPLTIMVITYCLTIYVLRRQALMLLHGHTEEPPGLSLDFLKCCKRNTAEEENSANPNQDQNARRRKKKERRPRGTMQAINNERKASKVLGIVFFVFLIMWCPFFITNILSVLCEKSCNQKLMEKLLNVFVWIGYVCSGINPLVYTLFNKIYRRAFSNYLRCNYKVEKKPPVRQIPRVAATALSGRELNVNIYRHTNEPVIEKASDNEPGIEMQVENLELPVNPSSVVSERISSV

5-HT1A = target: T2, 5-HT1A (Homo sapiens, UniProt P08908); assay: Radioligand binding
T2 sequence (P08908 1-422): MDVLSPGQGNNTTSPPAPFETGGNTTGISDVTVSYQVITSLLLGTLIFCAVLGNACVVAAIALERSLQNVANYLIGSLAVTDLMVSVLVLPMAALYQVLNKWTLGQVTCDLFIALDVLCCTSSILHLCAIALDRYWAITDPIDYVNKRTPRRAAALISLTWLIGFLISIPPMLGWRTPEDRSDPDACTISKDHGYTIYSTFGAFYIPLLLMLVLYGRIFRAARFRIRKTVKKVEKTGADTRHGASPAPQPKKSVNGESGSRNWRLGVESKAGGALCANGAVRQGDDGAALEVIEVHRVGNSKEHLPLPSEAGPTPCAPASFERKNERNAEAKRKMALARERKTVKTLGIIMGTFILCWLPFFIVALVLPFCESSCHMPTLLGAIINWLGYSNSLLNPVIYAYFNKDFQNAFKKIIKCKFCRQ

α2C = target: T3, α2C (Homo sapiens, UniProt P18825); assay: Radioligand binding; conditions: for fold lower affinity for α2C compared to 2-AI: binding, [3H]rauwolscine
T3 sequence (P18825 1-462): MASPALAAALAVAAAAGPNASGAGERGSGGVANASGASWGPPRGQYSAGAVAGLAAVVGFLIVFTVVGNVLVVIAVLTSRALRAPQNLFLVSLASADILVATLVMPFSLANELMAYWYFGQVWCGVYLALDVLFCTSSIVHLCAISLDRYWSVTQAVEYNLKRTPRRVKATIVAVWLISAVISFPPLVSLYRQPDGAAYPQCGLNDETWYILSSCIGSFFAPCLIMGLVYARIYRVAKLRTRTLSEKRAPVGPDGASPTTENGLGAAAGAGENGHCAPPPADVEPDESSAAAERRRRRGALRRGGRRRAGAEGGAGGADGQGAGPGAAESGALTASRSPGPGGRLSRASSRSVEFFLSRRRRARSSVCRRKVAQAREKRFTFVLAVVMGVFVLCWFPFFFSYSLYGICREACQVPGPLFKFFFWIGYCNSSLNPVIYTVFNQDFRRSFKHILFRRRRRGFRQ

DAT [1] = target: DAT (Homo sapiens, UniProt Q01959); assay: Radioligand binding
DAT (Homo sapiens, UniProt Q01959), sequence (Q01959 whole entry): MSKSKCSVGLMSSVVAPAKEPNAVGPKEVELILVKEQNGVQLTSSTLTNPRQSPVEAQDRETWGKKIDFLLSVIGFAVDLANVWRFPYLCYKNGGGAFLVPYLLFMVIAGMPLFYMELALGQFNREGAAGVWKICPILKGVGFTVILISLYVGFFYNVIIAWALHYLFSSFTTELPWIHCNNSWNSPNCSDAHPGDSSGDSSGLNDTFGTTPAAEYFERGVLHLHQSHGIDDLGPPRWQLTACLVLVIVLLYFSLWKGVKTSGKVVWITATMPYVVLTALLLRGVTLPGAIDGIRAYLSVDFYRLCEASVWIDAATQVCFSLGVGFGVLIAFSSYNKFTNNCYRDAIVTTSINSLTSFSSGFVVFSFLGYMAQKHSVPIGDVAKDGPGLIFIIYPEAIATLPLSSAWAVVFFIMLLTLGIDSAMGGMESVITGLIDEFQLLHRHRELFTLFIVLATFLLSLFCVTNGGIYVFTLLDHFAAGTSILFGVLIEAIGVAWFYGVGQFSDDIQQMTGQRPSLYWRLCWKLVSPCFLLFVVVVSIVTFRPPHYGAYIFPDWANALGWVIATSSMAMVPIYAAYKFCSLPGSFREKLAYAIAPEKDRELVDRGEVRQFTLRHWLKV

5-HT7 = 5-HT7 (Homo sapiens, UniProt P34969); assay: Radioligand binding
σ1 = σ1 (Rattus norvegicus, UniProt Q9R0C9); assay: Radioligand binding
σ1, sequence (Q9R0C9 whole entry): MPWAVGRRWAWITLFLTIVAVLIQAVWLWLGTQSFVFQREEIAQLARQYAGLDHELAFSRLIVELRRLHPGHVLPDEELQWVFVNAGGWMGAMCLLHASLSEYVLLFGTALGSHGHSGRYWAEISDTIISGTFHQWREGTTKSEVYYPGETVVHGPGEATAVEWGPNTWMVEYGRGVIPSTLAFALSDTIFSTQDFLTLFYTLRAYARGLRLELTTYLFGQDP

DAT [2] = target: DAT (Rattus norvegicus, UniProt P23977); assay: DAT-mediated release of [3H]MPP+ from rat brain synaptosomes; format: biochemical; conditions: for DAT/NET ratio: (DAT EC50)^-1 ÷ (NET EC50)^-1; for DAT/NET ratio / DAT/SERT ratio: higher value = greater DAT selectivity; for DAT/SERT ratio: (DAT EC50)^-1 ÷ (SERT EC50)^-1; for Emax: read-out: DAT-mediated release Emax; for fold lower release potency at DAT: relative to SERT (MDAI: relative to SERT and NET), synaptosomal release
DAT (Rattus norvegicus, UniProt P23977), sequence (P23977 whole entry): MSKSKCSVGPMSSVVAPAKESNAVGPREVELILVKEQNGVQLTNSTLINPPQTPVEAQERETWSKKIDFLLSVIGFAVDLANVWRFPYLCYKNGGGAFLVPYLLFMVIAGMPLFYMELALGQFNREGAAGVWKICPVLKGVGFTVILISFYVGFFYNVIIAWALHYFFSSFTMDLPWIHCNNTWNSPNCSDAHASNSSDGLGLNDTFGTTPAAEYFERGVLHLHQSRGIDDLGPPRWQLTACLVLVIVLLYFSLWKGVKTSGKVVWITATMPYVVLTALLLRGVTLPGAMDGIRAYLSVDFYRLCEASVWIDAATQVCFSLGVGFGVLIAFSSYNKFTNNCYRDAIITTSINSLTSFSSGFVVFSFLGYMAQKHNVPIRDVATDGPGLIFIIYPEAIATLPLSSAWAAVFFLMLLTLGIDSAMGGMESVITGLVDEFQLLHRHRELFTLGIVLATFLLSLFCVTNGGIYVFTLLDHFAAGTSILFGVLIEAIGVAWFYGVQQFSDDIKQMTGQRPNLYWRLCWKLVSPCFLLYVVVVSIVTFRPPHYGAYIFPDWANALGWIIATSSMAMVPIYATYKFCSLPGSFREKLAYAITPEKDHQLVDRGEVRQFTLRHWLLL

D5 = D5 (Homo sapiens, UniProt P21918); assay: Radioligand binding
D5, sequence (P21918 whole entry): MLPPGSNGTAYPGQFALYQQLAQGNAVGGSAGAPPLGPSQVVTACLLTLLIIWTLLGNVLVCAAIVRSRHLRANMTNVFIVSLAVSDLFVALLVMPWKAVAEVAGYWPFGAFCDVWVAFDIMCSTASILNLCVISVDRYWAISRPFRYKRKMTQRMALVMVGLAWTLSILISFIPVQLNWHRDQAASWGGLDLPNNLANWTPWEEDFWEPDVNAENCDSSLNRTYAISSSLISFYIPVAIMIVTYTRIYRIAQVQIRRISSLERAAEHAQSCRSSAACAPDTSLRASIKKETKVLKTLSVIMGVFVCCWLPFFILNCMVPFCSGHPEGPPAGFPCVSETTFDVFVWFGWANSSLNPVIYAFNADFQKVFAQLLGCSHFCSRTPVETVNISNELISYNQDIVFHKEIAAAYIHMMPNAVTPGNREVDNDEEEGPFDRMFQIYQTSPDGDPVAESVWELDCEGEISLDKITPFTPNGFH

D2 = D2 (Homo sapiens, UniProt P14416); assay: Radioligand binding
α1B = target: T4, α1B (Homo sapiens, UniProt P35368); assay: Radioligand binding
T4 sequence (P35368 1-520): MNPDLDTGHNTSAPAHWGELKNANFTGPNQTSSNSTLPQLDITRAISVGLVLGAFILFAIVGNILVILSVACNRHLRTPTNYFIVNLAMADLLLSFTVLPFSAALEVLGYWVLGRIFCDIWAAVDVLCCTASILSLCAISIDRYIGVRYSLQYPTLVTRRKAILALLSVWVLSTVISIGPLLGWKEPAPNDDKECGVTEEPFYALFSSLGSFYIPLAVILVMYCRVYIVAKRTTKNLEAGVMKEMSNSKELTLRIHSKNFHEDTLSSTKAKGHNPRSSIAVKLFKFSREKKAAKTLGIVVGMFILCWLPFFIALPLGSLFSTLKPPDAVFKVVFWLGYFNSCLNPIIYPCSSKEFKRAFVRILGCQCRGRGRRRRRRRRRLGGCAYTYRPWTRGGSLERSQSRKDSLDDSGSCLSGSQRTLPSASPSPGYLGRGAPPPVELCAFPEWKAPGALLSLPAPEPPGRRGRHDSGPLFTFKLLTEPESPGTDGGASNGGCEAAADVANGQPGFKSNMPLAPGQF

β3 = β3 (Homo sapiens, UniProt P13945); assay: Radioligand binding
β3, sequence (P13945 whole entry): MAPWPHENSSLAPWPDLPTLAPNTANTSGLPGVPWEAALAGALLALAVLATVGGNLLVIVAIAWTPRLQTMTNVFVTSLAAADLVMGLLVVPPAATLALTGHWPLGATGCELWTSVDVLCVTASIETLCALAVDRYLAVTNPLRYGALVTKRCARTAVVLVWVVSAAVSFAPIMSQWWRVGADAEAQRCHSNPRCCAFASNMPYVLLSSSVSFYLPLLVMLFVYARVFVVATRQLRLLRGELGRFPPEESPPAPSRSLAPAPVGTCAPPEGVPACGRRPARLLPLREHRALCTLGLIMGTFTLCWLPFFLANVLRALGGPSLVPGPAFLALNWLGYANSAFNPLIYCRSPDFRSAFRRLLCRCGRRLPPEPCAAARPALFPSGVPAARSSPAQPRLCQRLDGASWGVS

5-HT5A = 5-HT5A (Homo sapiens, UniProt P47898); assay: Radioligand binding
5-HT2A = 5-HT2A (Homo sapiens, UniProt P28223); assay: Radioligand binding
5-HT2A, sequence (P28223 whole entry): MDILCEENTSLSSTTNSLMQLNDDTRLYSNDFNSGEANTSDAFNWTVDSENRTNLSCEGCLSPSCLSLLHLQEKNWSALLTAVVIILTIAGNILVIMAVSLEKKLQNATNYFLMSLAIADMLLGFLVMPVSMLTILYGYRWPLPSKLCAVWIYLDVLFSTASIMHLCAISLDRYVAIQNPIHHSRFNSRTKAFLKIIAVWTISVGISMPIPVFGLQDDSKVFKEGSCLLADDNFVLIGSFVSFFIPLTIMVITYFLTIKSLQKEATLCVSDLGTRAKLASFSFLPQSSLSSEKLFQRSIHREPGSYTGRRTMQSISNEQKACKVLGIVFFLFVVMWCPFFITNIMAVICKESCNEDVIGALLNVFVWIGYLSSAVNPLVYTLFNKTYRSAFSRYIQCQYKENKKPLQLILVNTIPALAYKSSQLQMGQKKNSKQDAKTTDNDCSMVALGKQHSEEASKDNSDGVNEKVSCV

5-HT1E = 5-HT1E (Homo sapiens, UniProt P28566); assay: Radioligand binding
5-HT1E, sequence (P28566 whole entry): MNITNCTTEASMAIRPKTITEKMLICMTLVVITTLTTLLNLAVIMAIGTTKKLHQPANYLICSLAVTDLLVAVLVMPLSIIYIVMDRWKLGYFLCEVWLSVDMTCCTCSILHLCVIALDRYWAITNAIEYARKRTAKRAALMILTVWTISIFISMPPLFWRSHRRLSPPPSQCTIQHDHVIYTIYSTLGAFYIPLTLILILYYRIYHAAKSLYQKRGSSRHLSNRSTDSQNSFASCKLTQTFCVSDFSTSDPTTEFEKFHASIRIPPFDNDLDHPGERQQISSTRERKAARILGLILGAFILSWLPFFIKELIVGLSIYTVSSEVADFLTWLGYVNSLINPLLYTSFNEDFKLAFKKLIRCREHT

5-HT1D = 5-HT1D (Homo sapiens, UniProt P28221); assay: Radioligand binding
5-HT1D, sequence (P28221 whole entry): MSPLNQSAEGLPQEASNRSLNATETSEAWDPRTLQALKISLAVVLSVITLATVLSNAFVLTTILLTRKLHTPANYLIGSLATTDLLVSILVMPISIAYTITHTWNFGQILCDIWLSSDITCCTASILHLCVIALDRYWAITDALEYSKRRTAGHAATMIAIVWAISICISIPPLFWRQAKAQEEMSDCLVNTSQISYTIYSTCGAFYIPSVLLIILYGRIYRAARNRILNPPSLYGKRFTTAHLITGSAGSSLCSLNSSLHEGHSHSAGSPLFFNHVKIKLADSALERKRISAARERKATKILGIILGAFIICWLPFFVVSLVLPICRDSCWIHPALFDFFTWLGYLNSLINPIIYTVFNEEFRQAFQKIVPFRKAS

5-HT1B = 5-HT1B (Homo sapiens, UniProt P28222); assay: Radioligand binding
5-HT6 = 5-HT6 (Homo sapiens, UniProt P50406); assay: Radioligand binding
5-HT6, sequence (P50406 whole entry): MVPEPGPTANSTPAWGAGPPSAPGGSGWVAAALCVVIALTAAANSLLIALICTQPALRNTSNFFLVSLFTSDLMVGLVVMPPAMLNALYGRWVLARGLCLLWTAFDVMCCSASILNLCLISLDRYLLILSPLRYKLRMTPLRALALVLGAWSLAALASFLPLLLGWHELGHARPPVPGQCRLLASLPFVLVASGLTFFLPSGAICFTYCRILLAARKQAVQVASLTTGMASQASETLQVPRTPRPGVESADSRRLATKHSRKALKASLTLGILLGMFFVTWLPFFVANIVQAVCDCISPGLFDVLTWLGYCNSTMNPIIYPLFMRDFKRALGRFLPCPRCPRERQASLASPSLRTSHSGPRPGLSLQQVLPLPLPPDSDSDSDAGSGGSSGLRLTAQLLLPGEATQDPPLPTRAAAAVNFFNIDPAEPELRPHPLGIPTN

D3 = D3 (Homo sapiens, UniProt P35462); assay: Radioligand binding
rats = conditions: drug discrimination, cited from earlier work
[3] = ref Oberlender and Nichols, 1991

NET, sequence (Q63380 1-617): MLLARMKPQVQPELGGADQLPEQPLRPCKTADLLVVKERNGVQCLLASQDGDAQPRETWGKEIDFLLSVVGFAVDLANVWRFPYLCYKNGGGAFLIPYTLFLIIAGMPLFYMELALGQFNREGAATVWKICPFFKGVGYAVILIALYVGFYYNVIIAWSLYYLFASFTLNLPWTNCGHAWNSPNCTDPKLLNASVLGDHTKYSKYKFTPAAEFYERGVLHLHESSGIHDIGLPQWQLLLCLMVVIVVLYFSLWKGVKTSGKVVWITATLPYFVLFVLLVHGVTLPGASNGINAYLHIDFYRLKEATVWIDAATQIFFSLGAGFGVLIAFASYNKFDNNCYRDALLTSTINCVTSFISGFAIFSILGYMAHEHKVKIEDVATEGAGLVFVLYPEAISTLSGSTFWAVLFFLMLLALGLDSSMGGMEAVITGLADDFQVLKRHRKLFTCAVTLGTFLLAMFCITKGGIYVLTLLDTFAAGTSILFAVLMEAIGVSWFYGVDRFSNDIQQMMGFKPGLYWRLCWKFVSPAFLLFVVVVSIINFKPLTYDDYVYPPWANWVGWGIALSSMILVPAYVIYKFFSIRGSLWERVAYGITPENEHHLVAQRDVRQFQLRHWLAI

Row | Compound | Emax (NET) [%] | Ki (5-HT2C) [µM] | Ki (5-HT1A) [µM] | Ki (α2C) [µM] | Ki (DAT [1]) [µM] | Ki (5-HT7) [µM] | Ki (σ1) [µM] | EC50 (DAT [2]) [µM] | DAT/NET ratio (DAT [2]) | DAT/SERT ratio (DAT [2]) | Ki (D5) [µM] | Ki (D2) [µM] | Ki (α1B) [µM] | Ki (β3) [µM] | Ki (5-HT5A) [µM] | Ki (5-HT2A) [µM] | Ki (5-HT1E) [µM] | Ki (5-HT1D) [µM] | Ki (5-HT1B) [µM] | Ki (5-HT6) [µM] | also measured
1 | NC1Cc2cc3c(cc2C1)OCO3 [MDAI, 5,6-methylenedioxy-2-aminoindan] | 99 | > 10 | > 10 | 0.363 ± 0.219 | > 10 | > 10 | > 10 | 1.33 | 0.09 | 0.08 | > 10 | > 10 | > 10 | > 10 | > 10 | > 10 | > 10 | > 10 | > 10 | > 10 | Emax (DAT [2]): 113%; fold lower release potency at DAT (DAT [2]): 10 fold; Ki (D3): > 10 µM; drug-appropriate responding in (+)-methamphetamine-trained rats (rats; ref Gatch et al. 2016): 75%; substitution in cocaine-trained rats (rats; ref Gatch et al. 2016): full substitution; substitution for MDMA and S-(+)-MBDB (rats; ref Nichols et al. 1990, Oberlender and Nichols 1990, Malmusi et al. 1996, Gatch et al. 2016): substituted; substitution in (+)-amphetamine-trained rats (rats; [3]): did not substitute
2 | COc1cc2c(cc1C)CC(N)C2 (stereo not shown) [MMAI, 5-methoxy-6-methyl-2-aminoindan] | 105 | > 10 | 1.08 | 1.38 | > 10 | 1.01 | > 10 | > 10 | >0.31 | > 0.003 | > 10 | > 10 | > 10 | > 10 | > 10 | > 10 | > 10 | 2.56 | 2.78 | > 10 | fold lower affinity for α2C compared to 2-AI (α2C): 30 fold; fold lower release potency at DAT (DAT [2]): 100 fold; Ki (D3): > 10 µM; substitution in (+)-amphetamine-trained rats (rats; ref Johnson et al. 1991b): did not substitute; substitution in rats trained to discriminate MDMA and S-(+)-MBDB (rats; ref Johnson et al. 1991b): fully substituted
3 | NC1Cc2ccccc2C1 [2-AI, 2-aminoindan] | 95 | > 10 | > 10 | 0.041 ± 0.026 | > 10 | > 10 | > 10 | 0.439 ± 0.038 | 0.20 | >22.78 | > 10 | > 10 | > 10 | > 10 | > 10 | > 10 | > 10 | > 10 | > 10 | > 10 | Emax (DAT [2]): 106%; Ki (D3): > 10 µM; substitution for (+)-amphetamine (rats; ref Glennon et al. 1984): fully substituted; substitution in (+)-amphetamine-trained rats (rats; [3]): partial substitution
4 | COc1ccc2c(c1)CC(N)C2 (stereo not shown) [5-MeO-AI, 5-methoxy-2-aminoindan] | 101 | > 10 | 2.5 | 1.22 | > 10 | > 10 | > 10 | 2.65 | 0.33 | 0.05 | > 10 | > 10 | > 10 | > 10 | > 10 | > 10 | > 10 | > 10 | > 10 | > 10 | fold lower affinity for α2C compared to 2-AI (α2C): 30 fold; Emax (DAT [2]): 117%; fold lower release potency at DAT (DAT [2]): 20 fold; Ki (D3): > 10 µM
